Converted amounts (≈) assume the structure as drawn.
Experiments:
LNCaP = assay: Antitumor activity against human LNCaP cells; format: functional, cell-based
CWR22R = assay: Antitumor activity against human CWR22R cells; format: functional, cell-based; settings: 22Rv1
PC-3 = assay: Antitumor activity against human PC-3 cells; format: functional, cell-based
[1] = system: Human immunodeficiency virus; assay: Antiviral activity against HIV; format: functional, organism-based; settings: Human immunodeficiency virus 1
[2] = […] activity against Eupenicillium abidjanum IFO 8939; format: functional; settings: Penicillium abidjanum
Jurkat = assay: Cytotoxicity against human Jurkat cells after 72 hrs by microtitre plate assay; format: functional, cell-based
[3] = Cytotoxicity against mouse NS-1 cells after 72 hrs by microtitre plate assay; format: functional, cell-based; settings: NS1, 72 h
HepG2 = assay: Growth inhibition of human HepG2 cells; format: functional

COc1ccc([C@H]2SS[C@@]34C[C@]5(O)[C@H](Cl)C=C[C@@H](O)[C@@H]5ON3C(=O)[C@@H]2N(C)C4=O)c(O)c1OC
IC50 (LNCaP): 1.8 µM | IC50 (CWR22R): 0.51 µM | IC50 (PC-3): 5.1 µM

CS[C@@]12CC3=CC=C[C@H](O)[C@H]3N1C(=O)[C@@]13C[C@H]4C(=O)C[C@@H](SS1)[C@H](O)[C@H]4N3C2=O
IC50 [1]: 16 µM

CS[C@@]12C[C@H]3C(=O)CC[C@H](O)[C@H]3N1C(=O)[C@@]13C[C@@H]4[C@@H]([C@@H](O)C=C[C@@H]4S1)N3C2=O
IC50 [1]: 10 µM

CS[C@@]12CC3=CC=C[C@H](O)[C@H]3N1C(=O)[C@@]13C[C@H]4C(=O)C[C@@H](S1)[C@H](O)[C@H]4N3C2=O
IC50 [1]: 10 µM

COc1ccc([C@H]2SS[C@@]34C[C@]56O[C@H]5C=C[C@@H](O)[C@@H]6ON3C(=O)[C@@H]2N(C)C4=O)c(O)c1OC
MIC [2]: 10 µg/mL (≈ 20.2 µM)

CS[C@@]12CC3=CC=C[C@H](O)[C@H]3N1C(=O)[C@]13C[C@H]4C(=O)[C@H](C[C@H](O)[C@H]4N1C2=O)S3
IC50 [1]: 10 µM

CS[C@@]12CC3=CC=C[C@H](O)[C@H]3N1C(=O)[C@@]13C[C@@H]4[C@@H]([C@@H](O)[C@@H](C[C@@H]4O)S1)N3C2=O
IC50 [1]: 10 µM

COc1ccc2cc(NC(=O)[C@@]34C[C@]5(O)[C@@H](C=C[C@@H](O)[C@@H]5ON3)SS4)c(=O)oc2c1OC
IC50 (Jurkat): 1.3 µM | IC50 [3]: 10 µM

COc1ccc([C@H]2SS[C@@]34C[C@]5(O)[C@H](Cl)C=C[C@@H](O)[C@@H]5ON3C(=O)[C@@H]2NC4=O)c(O)c1OC
IC50 (Jurkat): 5.1 µM

CS[C@@]12C[C@H]3C(=O)CC[C@H](O)[C@H]3N1C(=O)[C@@]13C[C@@H]4[C@@H]([C@@H](O)[C@@H](C[C@@H]4O)S1)N3C2=O
IC50 [1]: 10 µM

CSC1c2ccccc2O[C@]12C(=O)N1O[C@]3(CCC=CC3=O)[C@@H](O)C1(SC)C(=O)N2C (stereo not given in full)
GI50 (HepG2): 8 µM

CS[C@@]12C[C@H]3C(=O)CC[C@H](O)[C@H]3N1C(=O)[C@@]13C[C@H]4C(=O)C[C@@H](S1)[C@H](O)[C@H]4N3C2=O [EPICOCCIN O]
IC50 [1]: 10 µM
